Values of other authors in patent publication US12508224B2, “Treating microvascular dysfunction” (EndoProtech, Inc., priority 2018, dated 2025).

Test system: glycocalyx

Structure (SMILES): CCCCCCCCCCCCC/C=C/[C@@H](O)[C@@H](N)COP(=O)(O)O [SP, sphingosine-1-phosphate]
- levels needed in plasma to protect the stability of the glycocalyx: 100 to 300 nM
